The experiment concerns the target T1, IL-1β (Homo sapiens, UniProt P01584).
T1 construct: purchased BioLegend 579404
Briefly: IL-6 assay in MRC5 cells: inhibition of IL-1β induced IL-6 secretion (AlphaLISA). As to conditions: inhibition of IL-1β induced IL-6 secretion in MRC5 cells; read-out: MRC5 IC50. It is filed as cell-based. The method, boiled down: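 Compound was pre-incubated 1 h at ambient temperature with recombinant human IL-1β at 2λ EC80 before adding human lung fibroblast MRC5 cells (3000/well) in EMEM with 0.025% BSA. After overnight culture at 37 °C, 5% CO2, secreted IL-6 in conditioned medium was measured by AlphaLISA; IC50 from 4-parameter logistic fits.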

Non-standard residues stand in square brackets, D forms with d. Residues, ends and D or L forms follow the SMILES beside them. Trp(4-Cl)(βS-Me) = C[C@@H](c1c[nH]c2cccc(Cl)c12)[C@H](N)C(=O)O; dPro(4R-(4-pyridylmethyl)) = O=C(O)[C@H]1C[C@@H](Cc2ccncc2)CN1; dPro(3S-(4-Br-benzyl)) = O=C(O)[C@@H]1NCC[C@@H]1Cc1ccc(Br)cc1; Trp(βS-Me,4-F) = C[C@@H](c1c[nH]c2cccc(F)c12)[C@H](N)C(=O)O; Bip(4'-COOH) = N[C@@H](Cc1ccc(-c2ccc(C(=O)O)cc2)cc1)C(=O)O; Ala(1-bicyclo(1.1.1)pentyl) = N[C@@H](CC12CC(C1)C2)C(=O)O; dPro(4R-Bzl(4-F)) = O=C(O)[C@H]1C[C@@H](Cc2ccc(F)cc2)CN1; 1Nal(3S-Me) = C[C@@H](c1cccc2ccccc12)[C@H](N)C(=O)O; Ala(pyrimidin-5-yl) = N[C@@H](Cc1cncnc1)C(=O)O; Phe(4-COOH) = N[C@@H](Cc1ccc(C(=O)O)cc1)C(=O)O; Pro(cis-4-F) = O=C(O)[C@@H]1C[C@H](F)CN1; d(αMeD) = C[C@@](N)(CC(=O)O)C(=O)O; 4Pal = N[C@@H](Cc1ccncc1)C(=O)O; αMeK = C[C@](N)(CCCCN)C(=O)O; hSer = N[C@@H](CCO)C(=O)O; Orn = NCCC[C@H](N)C(=O)O; Dab = NCC[C@H](N)C(=O)O; Dap = NC[C@H](N)C(=O)O; Aib = CC(C)(N)C(=O)O

T1 sequence (P01584 117-269): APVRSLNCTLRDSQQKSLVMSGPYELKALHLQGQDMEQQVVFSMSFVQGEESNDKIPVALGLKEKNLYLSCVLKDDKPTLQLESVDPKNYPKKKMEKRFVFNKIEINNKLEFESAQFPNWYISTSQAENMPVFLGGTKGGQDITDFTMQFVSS

Turning to `C[C@@H](c1c[nH]c2cccc(F)c12)[C@@H]1NC(=O)[C@@H]2C[C@H](F)CN2C(=O)CNC(=O)[C@H](Cc2ccc(C(=O)O)cc2)NC(=O)[C@H](CC23CC(C2)C3)NC(=O)[C@H](Cc2ccc(-c3ccc(C(=O)O)cc3)cc2)NC(=O)[C@H]2C[C@@H](Cc3ccc(F)cc3)CN2C(=O)CNC(=O)[C@H](CCN)NC(=O)[C@H](CCC(N)=O)NC(=O)[C@H](Cc2cncnc2)NC(=O)[C@](C)(CCCCN)NC(=O)[C@H](Cc2c[nH]c3ccccc23)NC(=O)[C@H](CCO)NC(=O)C(C)(C)NC1=O` [Example 147] (cyclo([Bip(4'-COOH)][Ala(1-bicyclo(1.1.1)pentyl)][Phe(4-COOH)]G[Pro(cis-4-F)][Trp(βS-Me,4-F)][Aib][hSer]W[αMeK][Ala(pyrimidin-5-yl)]Q[Dab]G[dPro(4R-Bzl(4-F))])), the half-inhibitory concentration (IC50) was 0.045 nM.
For the compound `C[C@@H](c1c[nH]c2cccc(Cl)c12)[C@@H]1NC(=O)[C@@H]2C[C@H](F)CN2C(=O)CNC(=O)[C@H](Cc2ccc(C(=O)O)cc2)NC(=O)[C@H](Cc2ccncc2)NC(=O)[C@H](Cc2ccc(-c3ccc(C(=O)O)cc3)cc2)NC(=O)[C@H]2C[C@@H](Cc3ccc(F)cc3)CN2C(=O)CNC(=O)[C@H](CCN)NC(=O)[C@H](CCC(N)=O)NC(=O)[C@H](Cc2cncnc2)NC(=O)C(C)(C)NC(=O)[C@H](Cc2c[nH]c3ccccc23)NC(=O)[C@H](CCC(=O)O)NC(=O)C(C)(C)NC1=O` [Example 148] (cyclo([Bip(4'-COOH)][4Pal][Phe(4-COOH)]G[Pro(cis-4-F)][Trp(4-Cl)(βS-Me)][Aib]EW[Aib][Ala(pyrimidin-5-yl)]Q[Dab]G[dPro(4R-Bzl(4-F))])), the IC50 turned out to be 0.032 nM.
Consider `C[C@@H](c1cccc2ccccc12)[C@@H]1NC(=O)[C@@H]2C[C@H](F)CN2C(=O)CNC(=O)[C@H](Cc2ccc(C(=O)O)cc2)NC(=O)[C@H](Cc2ccncc2)NC(=O)[C@H](Cc2ccc(-c3ccc(C(=O)O)cc3)cc2)NC(=O)[C@H]2C[C@@H](Cc3ccc(F)cc3)CN2C(=O)CNC(=O)[C@H](CCN)NC(=O)[C@H](CCC(N)=O)NC(=O)[C@H](Cc2cncnc2)NC(=O)C(C)(C)NC(=O)[C@H](Cc2c[nH]c3ccccc23)NC(=O)[C@H](CCC(=O)O)NC(=O)C(C)(C)NC1=O` [Example 149] (cyclo([Bip(4'-COOH)][4Pal][Phe(4-COOH)]G[Pro(cis-4-F)][1Nal(3S-Me)][Aib]EW[Aib][Ala(pyrimidin-5-yl)]Q[Dab]G[dPro(4R-Bzl(4-F))])), for which the IC50 was 0.024 nM.
For `C[C@@H](c1c[nH]c2cccc(F)c12)[C@@H]1NC(=O)[C@@H]2C[C@H](F)CN2C(=O)CNC(=O)[C@H](Cc2ccc(C(=O)O)cc2)NC(=O)[C@H](Cc2ccncc2)NC(=O)[C@H](Cc2ccc(-c3ccc(C(=O)O)cc3)cc2)NC(=O)[C@H]2[C@@H](Cc3ccc(Br)cc3)CCN2C(=O)CNC(=O)[C@H](CN)NC(=O)[C@H](CCC(N)=O)NC(=O)[C@H](Cc2cncnc2)NC(=O)C(C)(C)NC(=O)[C@H](Cc2c[nH]c3ccccc23)NC(=O)[C@H](CCC(=O)O)NC(=O)C(C)(C)NC1=O` [Example 150] (cyclo([Bip(4'-COOH)][4Pal][Phe(4-COOH)]G[Pro(cis-4-F)][Trp(βS-Me,4-F)][Aib]EW[Aib][Ala(pyrimidin-5-yl)]Q[Dap]G[dPro(3S-(4-Br-benzyl))])), the IC50 is 0.019 nM.
`C[C@@H](c1c[nH]c2cccc(F)c12)[C@@H]1NC(=O)[C@@H]2C[C@H](F)CN2C(=O)CNC(=O)[C@H](Cc2ccc(C(=O)O)cc2)NC(=O)[C@H](Cc2ccncc2)NC(=O)[C@H](Cc2ccc(-c3ccc(C(=O)O)cc3)cc2)NC(=O)[C@H]2[C@@H](Cc3ccc(Br)cc3)CCN2C(=O)CNC(=O)[C@H](CCCN)NC(=O)[C@H](CCC(N)=O)NC(=O)[C@H](Cc2cncnc2)NC(=O)C(C)(C)NC(=O)[C@H](Cc2c[nH]c3ccccc23)NC(=O)[C@H](CCC(=O)O)NC(=O)C(C)(C)NC1=O` [Example 151] (cyclo([Bip(4'-COOH)][4Pal][Phe(4-COOH)]G[Pro(cis-4-F)][Trp(βS-Me,4-F)][Aib]EW[Aib][Ala(pyrimidin-5-yl)]Q[Orn]G[dPro(3S-(4-Br-benzyl))])): the concentration for half-maximal inhibition (IC50) worked out at 0.022 nM.
Regarding `C[C@@H](c1c[nH]c2cccc(F)c12)[C@@H]1NC(=O)[C@@H]2C[C@H](F)CN2C(=O)CNC(=O)[C@H](Cc2ccc(C(=O)O)cc2)NC(=O)[C@H](Cc2ccncc2)NC(=O)[C@H](Cc2ccc(-c3ccc(C(=O)O)cc3)cc2)NC(=O)[C@H]2[C@@H](Cc3ccc(Br)cc3)CCN2C(=O)CNC(=O)[C@H](CCCCN)NC(=O)[C@H](CCC(N)=O)NC(=O)[C@H](Cc2cncnc2)NC(=O)C(C)(C)NC(=O)[C@H](Cc2c[nH]c3ccccc23)NC(=O)[C@H](CCC(=O)O)NC(=O)C(C)(C)NC1=O` [Example 152] (cyclo([Bip(4'-COOH)][4Pal][Phe(4-COOH)]G[Pro(cis-4-F)][Trp(βS-Me,4-F)][Aib]EW[Aib][Ala(pyrimidin-5-yl)]QKG[dPro(3S-(4-Br-benzyl))])), the IC50 came out at 0.031 nM.
Consider `C[C@@H](c1cccc2ccccc12)[C@@H]1NC(=O)[C@@H]2C[C@H](F)CN2C(=O)CNC(=O)[C@H](Cc2ccc(C(=O)O)cc2)NC(=O)[C@H](Cc2ccncc2)NC(=O)[C@H](Cc2ccc(-c3ccc(C(=O)O)cc3)cc2)NC(=O)[C@H]2[C@@H](Cc3ccc(Br)cc3)CCN2C(=O)CNC(=O)[C@H](CCN)NC(=O)[C@H](CCC(N)=O)NC(=O)[C@H](Cc2cncnc2)NC(=O)C(C)(C)NC(=O)[C@H](Cc2c[nH]c3ccccc23)NC(=O)[C@H](CCC(=O)O)NC(=O)C(C)(C)NC1=O` [Example 153] (cyclo([Bip(4'-COOH)][4Pal][Phe(4-COOH)]G[Pro(cis-4-F)][1Nal(3S-Me)][Aib]EW[Aib][Ala(pyrimidin-5-yl)]Q[Dab]G[dPro(3S-(4-Br-benzyl))])), for which the concentration for half-maximal inhibition (IC50) turned out to be 0.019 nM.
Take `C[C@@H](c1c[nH]c2cccc(F)c12)[C@@H]1NC(=O)[C@@H]2C[C@H](F)CN2C(=O)CNC(=O)[C@H](Cc2ccc(C(=O)O)cc2)NC(=O)[C@H](Cc2ccncc2)NC(=O)[C@H](Cc2ccc(-c3ccc(C(=O)O)cc3)cc2)NC(=O)[C@H]2C[C@@H](Cc3ccncc3)CN2C(=O)CNC(=O)[C@H](CCN)NC(=O)[C@H](CCC(N)=O)NC(=O)[C@H](Cc2cncnc2)NC(=O)[C@@](C)(CC(=O)O)NC(=O)[C@H](Cc2c[nH]c3ccccc23)NC(=O)[C@H](CO)NC(=O)C(C)(C)NC1=O` [Example 154] (cyclo([Bip(4'-COOH)][4Pal][Phe(4-COOH)]G[Pro(cis-4-F)][Trp(βS-Me,4-F)][Aib]SW[d(αMeD)][Ala(pyrimidin-5-yl)]Q[Dab]G[dPro(4R-(4-pyridylmethyl))])): the IC50 stood at 0.011 nM.
Turning to `C[C@@H](c1c[nH]c2cccc(F)c12)[C@@H]1NC(=O)[C@@H]2C[C@H](F)CN2C(=O)CNC(=O)[C@H](Cc2ccc(C(=O)O)cc2)NC(=O)[C@H](CC23CC(C2)C3)NC(=O)[C@H](Cc2ccc(-c3ccc(C(=O)O)cc3)cc2)NC(=O)[C@H]2C[C@@H](Cc3ccncc3)CN2C(=O)CNC(=O)[C@H](CCN)NC(=O)[C@H](CCC(N)=O)NC(=O)[C@H](Cc2cncnc2)NC(=O)[C@@](C)(CC(=O)O)NC(=O)[C@H](Cc2c[nH]c3ccccc23)NC(=O)[C@H](CO)NC(=O)C(C)(C)NC1=O` [Example 155] (cyclo([Bip(4'-COOH)][Ala(1-bicyclo(1.1.1)pentyl)][Phe(4-COOH)]G[Pro(cis-4-F)][Trp(βS-Me,4-F)][Aib]SW[d(αMeD)][Ala(pyrimidin-5-yl)]Q[Dab]G[dPro(4R-(4-pyridylmethyl))])), the concentration for half-maximal inhibition (IC50) stood at 0.011 nM.

The values are drawn from patent US20260242419A1, “A CYCLIC PEPTIDE FOR TRAPPING INTERLEUKIN-1 BETA” (Merck Sharp & Dohme LLC, priority 2023, published 2026).
